Series [1] concerns HIV-1 IIIB. Nature of the series: expected p24 expression in HIV-1 IIIB infected PHA-stimulated PBL with hydroxyurea and/or nucleoside analogs (Example 10). The format is cell-based. As for the experimental part:
PBL isolated from healthy donors are stimulated with PHA and IL-2 for 48 hours using standard protocols. At the same time, the cells are pre-treated with hydroxyurea alone or in combination with either ddI or fluorinated derivatives of chain-terminating nucleosides.

In series [2] the target is T1, HIV-1 RT (Human immunodeficiency virus type 1 group M subtype B, UniProt P04585). Put plainly: Km of HIV-1 RT for dNTP, 600-base globin mRNA template. The note with it: 600-base globin mRNA as template. The series is classed as biochemical.
Series [3] has as its system dNTP pools in PHA stimulated PBL. Put plainly: dNTP pools in HIV-1 infected PHA-stimulated PBL treated with hydroxyurea (enzyme assay). The format is cell-based, human. The note with it: 1 mM hydroxyurea. The procedure:
PBLs were cultured in the presence or absence of phytohemagglutinin A (PHA) at 10 μg/ml for 48 hours. Intracellular dNTP were extracted with 60% methanol and were examined by an enzyme assay using synthetic oligonucleotides (P. A. Sherman and A. J. Fyfe, 1989 Anal. Biochem. 180:222). Data represent the mean value of three experiments. […] The cellular volume of PBL was measured using a Coulter counter analizer and found to be approximately 0.25 μl/10^6 cells for quiescent PBL and 0.38 μl/10^6 cells for stimulated PBL, respectively.
Cell aliquots were harvested 24, 48 and 72 hours after infection and analyzed for the rate of dNTP synthesis inhibition (Sherman and Fyfe, supra) measured as the percentage of dNTP levels compared to the control cells.

The target in series [4] is T1, HIV-1 RT. Put plainly: in vitro activity of recombinant HIV-1 RT (primer extension assay). The series is classed as biochemical. The conditions noted are these: 200 mM. As for the experimental part:
We also assessed the in vitro activity of recombinant HIV-1 RT at dNTP concentrations that were equivalent to those found in quiescent and stimulated PBL. DNA was synthesized using a globin mRNA template and an oligo dT16 primer (a primer extension assay). The HIV-1 RT reaction mixture contained 50 mM Tris-HCl (pH 8.0), 6 mM MgCl2, 76 mM KCl, 0.5 mM DTT, 80 nM globin mRNA primed with oligo dT16 in 1:5 ratio, and dNTP at (a) the concentrations equivalent to quiescent cells and (b) the concentrations equivalent to stimulated cells as described in Table 1. Recombinant HIV-1 RT (obtained from American Biotechnologies) was used at 5 U/ml.

Series [5] has as its system HIV-1 [HTLV-IIIB]. Nature of the series: p24 production in activated PBL infected with HIV-1 [HTLV-IIIB], drugs added after infection. The series is classed as cell-based. The note with it: for inhibition at 1000 µM: Human immunodeficiency virus 1, IIIB, PBMC.
In series [6] the test system is PBL. Put plainly: count of viable cells in HIV-1 infected activated PBL culture. The series is classed as cell-based, human. The conditions noted are these: for Viable cells: PBMC, 1 mM Hydroxyurea.
Series [7] relates to HIV-1 strain Ba-L. Put plainly: p24 production in primary human macrophages infected with HIV-1 Ba-L. The format is cell-based. The conditions noted are these: for inhibition at 1000 µM: Human immunodeficiency virus 1, BAL, Macrophage. The procedure: Macrophages were obtained by cell adhesion after purification of PBL from healthy donors. After 14 days treatment with granulocyte-macrophage-colony-stimulating factor, cells were infected overnight with the HIV-1 strain Ba-L (Gartner et al., Science 233:215 (1986)). […] Supernatants were harvested ever 4-5 days for p24 analysis and fresh supernatant and drugs were added.
Percentages of HIV-1 inhibition were calculated based on p24 production compared to the untreated control. Drug treatment of macrophages was suspended after 14 days.

Series [8] deals with HIV-1. Nature of the series: administration of hydroxyurea to HIV-1 seropositive volunteers, CD4+ T-cell count (Example 9). The format is in vivo, human. The conditions noted are these: 20-40 mg per kg per day, after one month of drug treatment. As for the experimental part: One or more HIV-1 seropositive volunteers are first identified. Blood samples drawn from the volunteers are assayed for CD4^+T-cells using any suitable quantitation means. Such quantitation means include, but are not limited to, the flow cytometer. Over a period of from several weeks to months, the number of CD4^+T-cells is observed to decrease steadily as an indicator of disease progression.
The nucleoside analogs can be any of ddI, ddC or AZT, or combinations thereof.
When hydroxyurea is used in conjunction with a nucleoside analog, the dosage of the analog is determined according to convention in the medical and pharmaceutical arts.
After one month of drug treatment blood samples are again drawn and assayed for CD4^+T-cells.

Series [9] deals with HIV-1 IIIB. The conditions noted are these: for RT Activity: 1 mM hydroxyurea.
The test system of series [10] is HIV-1.
Description: In the latter procedure, we measured p24 production during the course of an in vitro infection to assess the inhibition of HIV-1 replication in activated PBL.
Series [11] has as its system primary human macrophages. The note with it: for Viable cells: Macrophages.
Series [12] concerns HIV-1. The conditions noted are these: for effect on HIV-1 replication at the lowest levels: in some cases, only when used individually, FIG. 3.
Protocol: PBL from healthy donors were infected for 2 hour at 37° C. with HIV-1 [HTLV-IIIB] (m.o.i.=1) after 2 days stimulation with PHA and Interleukin-2 (IL-2). […] Every 3-4 days, supernatant was harvested for p24 analysis, cells were counted and fresh supernatant and drugs were added. Samples were analyzed for (a) p24 production in the supernatant, (b) count of viable cells, and (c) ratios between the values expressed in (a) and (b).
PBL were isolated and stimulated for 2 days with PHA and IL-2. […] The extent of HIV-1 infection was analyzed as described in Example 5. Samples were tested for (a) p24 production in the supernatant, (b) viable cell count.
The conditions of series [13]: cited from earlier work.
Series [14] has as its system PBL. The note with it: doses corresponding to plasma concentrations in treated AIDS patients; cited from earlier work.
[15] abbreviates: nucleoside analog 20 μM, day 12.

Read-outs that look alike come from different tables or passages of the source.

`Nc1nc2c(ncn2[C@@H]2O[C@H](CO)C[C@@H]2F)c(=O)[nH]1` [2′-F-dd-ara-G]: the “p24 Expression after Infection” value is reported as “Low” in series [1] (nucleoside analog 20 μM, day 4); “Medium” in [1] (nucleoside analog 20 μM, day 8); “Medium” in series [1] (setting [15]).
Consider `O=c1[nH]cnc2c1ncn2[C@@H]1O[C@H](CO)C[C@@H]1F` [2′-F-dd-ara-I], for which the “p24 Expression after Infection” value is on record as “Low” in series [1] (nucleoside analog 20 μM, day 4); “Medium” in [1] (nucleoside analog 20 μM, day 8); “Medium” in [1] (setting [15]).
For `Nc1ncnc2c1ncn2[C@@H]1O[C@H](CO)C[C@@H]1F` [2′-F-dd-ara-A], the “p24 Expression after Infection” value in [1] (nucleoside analog 20 μM, day 4) is recorded as “Low”; in series [1] (nucleoside analog 20 μM, day 8) it was “Medium”; in [1] (setting [15]) it was “Medium”.
Consider `Cc1cn([C@H]2C[C@H](O)[C@@H](COP(=O)(O)OP(=O)(O)OP(=O)(O)O)O2)c(=O)[nH]c1=O` [dTTP], for which the Km in [2] stood at 4 µM.
Still for that read-out and setting: under `Nc1ccn([C@H]2C[C@H](O)[C@@H](COP(=O)(O)OP(=O)(O)OP(=O)(O)O)O2)c(=O)n1` [dCTP] stands 3.8 µM; under `Nc1ncnc2c1ncn2[C@H]1C[C@H](O)[C@@H](COP(=O)(O)OP(=O)(O)OP(=O)(O)O)O1` [dATP], 2.6 µM.
For the compound `Nc1nc2c(ncn2[C@H]2C[C@H](O)[C@@H](COP(=O)(O)OP(=O)(O)OP(=O)(O)O)O2)c(=O)[nH]1` [dGTP], the Km in series [2] was determined as 3.9 µM.
Turning to `NC(=O)NO` [hydroxyurea], in [3], the “dNTP pools in stimulated PBL” value is on record as “substantially depleted”. Moreover, the “direct inhibition of RT enzymatic activity” value in [4] is listed as “did not directly inhibit RT enzymatic activity”. For the same compound, the inhibition at 1000 µM in series [5] (96 h), in series [5] (168 h), in series [5] (240 h), in series [5] (336 h), in series [7] (96 h) and in [7] (168 h) was 100% in each case. The inhibition at 1000 µM in series [7] (240 h) and in [7] (336 h) was 100% throughout. In addition, the HIV-1 replication entry in series [5] (continuous treatment with 1 mM hydroxyurea, activated PBL) is on record as “completely blocked HIV-1 replication”; in series [7] (continuous treatment with 1 mM hydroxyurea, macrophages), “completely blocked HIV-1 replication”; in series [12] (patient PBL, FIG. 3a) it was “inhibited HIV-1 replication in a dose-dependent manner”. Further, the “antiviral effect, p24 normalized to number of viable cells” value in [5] (low concentrations, FIG. 1c) is “not mediated by cytotoxicity”. Moreover, in series [5] (used alone at low concentrations, FIG. 1a), the “HIV-1 replication (p24 in supernatant)” value is “inhibited in a dose-dependent manner”. The cytotoxic effects result in [6] (0.1 mM hydroxyurea, continuous exposure, FIG. 1b) is “some cytotoxic effects”; in series [11], “no cytotoxic effects were observed”. The toxicity entry in series [6] (1 mM hydroxyurea, activated PBL) is listed as “toxic effects at these concentrations were observed early”. Further, the Viable cells is 500 thousands/ml in series [6] (day 4); 185 thousands/ml in series [6] (day 7); 87 thousands/ml in series [6] (day 10); 36 thousands/ml in [6] (day 14); 300 thousands/cm^2 in series [11] (1 mM Hydroxyurea, day 4); 280 thousands/cm^2 in series [11] (1 mM Hydroxyurea, day 7). The Viable cells is given as 270 thousands/cm^2 in [11] (1 mM Hydroxyurea, day 10); 270 thousands/cm^2 in [11] (1 mM Hydroxyurea, day 14); 260 thousands/cm^2 in series [11] (day 21, drug suspension after 14 days); 240 thousands/cm^2 in series [11] (day 28, drug suspension after 14 days); 190 thousands/cm^2 in series [11] (day 35, drug suspension after 14 days). The “cytostatic and cytotoxic effects” value in [6] (decreased drug concentration, FIG. 1b) is on record as “virtually disappeared”. The “block of HIV-1 replication” value in series [7] (hydroxyurea as low as 0.05 mM, macrophages) is reported as more than 99.9%. The “HIV-1 replication after discontinuing the drug treatment” value in series [7] (infected macrophages, several weeks after discontinuing, in some experiments) is recorded as “absence of HIV-1 replication”. For the same compound, the “dose-dependent inhibition of HIV-1 production in macrophages compared with PBL” value in [7] (same donor for PBL and macrophages) is given as “consistently more potent than with primary PBL”. Further, the “p24 Expression after Infection” value in series [1] (HU 50 μM, day 4) is given as “Low”; in [1] (HU 50 μM, day 8), “Medium”; in [1] (HU 50 μM, day 12), “High”. Moreover, the “CD4+ T-cell population” value in series [8] was “stabilized or increased”. For the same compound, the “RT Activity” value in series [9] (day 2) is recorded as 0.892 cpm/ml × 1000; in [9] (day 5) it was 0.589 cpm/ml × 1000; in series [9] (day 9), 0.434 cpm/ml × 1000. Further, the “viral expression of RT” value in series [9] (pre-infection treatment with 1 mM hydroxyurea) is “significantly reduced”. In addition, the p24 after infection in series [10] (HU 10 μM, day 4) was determined as 4 ng/mL; in series [10] (HU 10 μM, day 8) it was 100 ng/mL; in [10] (HU 10 μM, day 12), 204 ng/mL; in series [10] (HU 50 μM, day 4), 3 ng/mL; in series [10] (HU 50 μM, day 8), 113 ng/mL; in series [10] (HU 50 μM, day 12) it was 148 ng/mL. Moreover, the p24 after infection in series [10] (HU 100 μM, day 4) was 2 ng/mL; in series [10] (HU 100 μM, day 8) it was 111 ng/mL; in [10] (HU 100 μM, day 12), 116 ng/mL. In series [12], the “effect on HIV-1 replication at the lowest levels” value is given as “stimulated HIV-1 replication”. In addition, the “blood concentration during standard clinical protocols” value in [13] (humans) is approximately 1000 µM. Also, the absorption entry in [13] (oral ingestion) was “readily absorbed after oral ingestion”.
On to `O=c1[nH]cnc2c1ncn2[C@H]1CC[C@@H](CO)O1` [ddI, didanosine], for which the “p24 Expression after Infection” value in series [1] (nucleoside analog 20 μM, day 4) was “Low”; in series [1] (nucleoside analog 20 μM, day 8) it was “Medium”; in series [1] (setting [15]), “Medium”. The p24 after infection in series [10] (ddI 0.2 μM, day 4) turned out to be 4 ng/mL; in series [10] (ddI 0.2 μM, day 8), 116 ng/mL; in series [10] (ddI 0.2 μM, day 12), 197 ng/mL; in [10] (ddI 1 μM, day 4), 3 ng/mL; in series [10] (ddI 1 μM, day 8), 90 ng/mL; in series [10] (ddI 1 μM, day 12), 196 ng/mL. Besides, the p24 after infection in [10] (ddI 5 μM, day 4) came out at 1 ng/mL; in [10] (ddI 5 μM, day 8) it was 58 ng/mL; in [10] (ddI 5 μM, day 12), 125 ng/mL; in [10] (ddI 20 μM, day 4) it was 1 ng/mL; in series [10] (ddI 20 μM, day 8) it was 25 ng/mL; in series [10] (ddI 20 μM, day 12) it was 51 ng/mL. In addition, the “effect on HIV-1 replication at the lowest levels” value in series [12] was “stimulated HIV-1 replication”. The cytotoxicity entry in [14] is given as “low”.

The record behind these values is US20060154892A1, “Procedure to block the replication of reverse transcriptase dependent viruses by the use of inhibitors of deoxynucleotides synthesis” (priority 1993, published 2006).
